From patent publication US9211262B2, “Injectable pharmaceutical compositions of an anthracenedione derivative with anti-tumoral activity” (CTI BioPharma Corp., priority 2002, dated 2015)

Tests used:
[1] = Solubility in water and sodium chloride solutions; type: physicochemical
From the text: However, the presence of sodium chloride requires the use of long lyophilisation cycles due to the low glass transition temperature observed.

[2] = Stability in solution in common solvents for parenteral administration; type: physicochemical; conditions: injectable liquid compositions
[3] = tested on: ascitic L1210 leukaemia; conditions: wide range of doses; cited from earlier work
[4] = tested on: YC-8 lymphoma; conditions: wide range of doses; cited from earlier work
[5] = in vivo; cited from earlier work

**Q.** For `NCCNc1ccc(NCCN)c2c1C(=O)c1ccncc1C2=O.O=C(O)/C=C\C(=O)O.O=C(O)/C=C\C(=O)O` [BBR 2778, 6,9-bis[(2-aminoethyl)amino]benzo[g]isoquinoline-5,10-dione dimaleate], which “solubility in sodium chloride solutions” value ([1]; sodium chloride solutions 0.9 to 4%) is on record?
**A.** The value was “progressively more soluble”.

**Q.** And the solubility in water ([1]; water)?
**A.** The solubility in water was “low solubility”.

**Q.** What about the stability in solution [2] of the same compound?
**A.** Its stability in solution is “problematic”.

**Q.** What about the “activity compared with mitoxantrone” value [3] of the same compound?
**A.** Its value is “more active than mitoxantrone”.

**Q.** And the “activity compared with mitoxantrone” value [4]?
**A.** Its value is “more active than mitoxantrone”.

**Q.** And the cardiotoxicity [5]?
**A.** Its cardiotoxicity is “lower than that of other known drugs belonging to the same class”.
